Five compounds from ChEMBL document CHEMBL5465560, “Selectivity Literature for EUbOPEN Chemogenomic Library” (2024) can be followed below.

Experiment [1] concerns the target T1, Inhibitor of nuclear factor kappa-B kinase subunit alpha (Homo sapiens) (UniProt O15111).
T1 sequence (whole entry): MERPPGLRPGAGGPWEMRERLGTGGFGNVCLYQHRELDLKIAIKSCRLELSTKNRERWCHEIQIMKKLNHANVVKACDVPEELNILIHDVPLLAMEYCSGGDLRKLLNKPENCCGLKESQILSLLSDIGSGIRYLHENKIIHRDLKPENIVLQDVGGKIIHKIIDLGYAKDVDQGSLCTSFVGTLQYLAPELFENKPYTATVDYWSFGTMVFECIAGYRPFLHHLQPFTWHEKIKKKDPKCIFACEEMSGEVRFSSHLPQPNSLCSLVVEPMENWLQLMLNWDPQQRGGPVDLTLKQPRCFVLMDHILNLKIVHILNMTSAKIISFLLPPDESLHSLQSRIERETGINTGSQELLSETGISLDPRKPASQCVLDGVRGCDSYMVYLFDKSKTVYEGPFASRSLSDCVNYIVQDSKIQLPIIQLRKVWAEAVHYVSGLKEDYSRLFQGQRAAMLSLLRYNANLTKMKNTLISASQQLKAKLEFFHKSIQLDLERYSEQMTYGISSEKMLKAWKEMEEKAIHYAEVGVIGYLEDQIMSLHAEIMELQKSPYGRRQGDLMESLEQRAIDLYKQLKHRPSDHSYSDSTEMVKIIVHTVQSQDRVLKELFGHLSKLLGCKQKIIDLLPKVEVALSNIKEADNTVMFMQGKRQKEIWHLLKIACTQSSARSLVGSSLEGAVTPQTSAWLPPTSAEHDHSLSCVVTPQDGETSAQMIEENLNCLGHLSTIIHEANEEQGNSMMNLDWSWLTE
Description: Selectivity interaction (Ambit KINOMEscan and KiNATiv profiling in Jurkat cells) EUB0000090b CHUK. The format is cell-based. The settings on record: at 1 µM.

The target of experiment [2] is Eukaryotic translation initiation factor 2-alpha kinase 1 (Homo sapiens) (UniProt Q9BQI3). Description: Selectivity interaction (Ambit KINOMEscan and KiNATiv profiling in Jurkat cells) EUB0000090b EIF2AK1. The settings on record: at 1 µM. The format is cell-based.
The target of experiment [3] is Protein-arginine deiminase type-4 (Homo sapiens, UniProt Q9UM07). Description: Selectivity interaction (Fluorescence polarization ligand binding assay (2 mM calcium)) EUB0000266bCl PADI4. For orientation: In fluorescence polarisation assays a small probe gives low polarisation when free and higher when bound to something large.
The target of experiment [4] is T2, Tyrosine-protein kinase TXK (Homo sapiens) (UniProt P42681).
T2 sequence (whole entry): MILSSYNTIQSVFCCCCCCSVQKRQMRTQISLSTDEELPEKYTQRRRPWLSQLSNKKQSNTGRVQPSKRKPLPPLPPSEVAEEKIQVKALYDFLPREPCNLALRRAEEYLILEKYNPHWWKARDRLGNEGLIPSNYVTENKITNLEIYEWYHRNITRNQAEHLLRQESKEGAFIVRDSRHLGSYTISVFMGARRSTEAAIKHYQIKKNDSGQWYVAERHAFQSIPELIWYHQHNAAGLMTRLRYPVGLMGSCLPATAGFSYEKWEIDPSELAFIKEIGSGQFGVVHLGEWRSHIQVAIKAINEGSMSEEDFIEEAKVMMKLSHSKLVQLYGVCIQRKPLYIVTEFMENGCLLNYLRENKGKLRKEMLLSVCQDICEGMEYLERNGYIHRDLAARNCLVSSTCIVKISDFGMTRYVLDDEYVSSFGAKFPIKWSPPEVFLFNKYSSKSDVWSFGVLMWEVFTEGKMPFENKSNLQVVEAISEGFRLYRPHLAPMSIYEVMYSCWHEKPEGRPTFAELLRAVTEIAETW
Put plainly: Selectivity interaction (KinomeScan (DiscoverX)) EUB0001619a TXK. The settings on record: at 1 µM.

Experiment [5] has as its target Ribosomal protein S6 kinase alpha-4 (Homo sapiens) (UniProt O75676). Put plainly: Selectivity interaction (ActivX KiNativ screen (kinase selectivity in THP-1 cell lysates)) EUB0000639a RPS6KA4. The settings on record: lysate. It is filed as subcellular.
The target in experiment [6] is Calcium/calmodulin-dependent protein kinase type 1 (Homo sapiens) (UniProt Q14012). Description: Selectivity interaction (ActivX KiNativ screen (kinase selectivity in THP-1 cell lysates)) EUB0000639a CAMK1. It is filed as subcellular. The settings on record: lysate, at 0.04 µM.
Experiment [7] deals with T3, Serine/threonine-protein kinase ICK (Homo sapiens) (UniProt Q9UPZ9).
T3 sequence (whole entry): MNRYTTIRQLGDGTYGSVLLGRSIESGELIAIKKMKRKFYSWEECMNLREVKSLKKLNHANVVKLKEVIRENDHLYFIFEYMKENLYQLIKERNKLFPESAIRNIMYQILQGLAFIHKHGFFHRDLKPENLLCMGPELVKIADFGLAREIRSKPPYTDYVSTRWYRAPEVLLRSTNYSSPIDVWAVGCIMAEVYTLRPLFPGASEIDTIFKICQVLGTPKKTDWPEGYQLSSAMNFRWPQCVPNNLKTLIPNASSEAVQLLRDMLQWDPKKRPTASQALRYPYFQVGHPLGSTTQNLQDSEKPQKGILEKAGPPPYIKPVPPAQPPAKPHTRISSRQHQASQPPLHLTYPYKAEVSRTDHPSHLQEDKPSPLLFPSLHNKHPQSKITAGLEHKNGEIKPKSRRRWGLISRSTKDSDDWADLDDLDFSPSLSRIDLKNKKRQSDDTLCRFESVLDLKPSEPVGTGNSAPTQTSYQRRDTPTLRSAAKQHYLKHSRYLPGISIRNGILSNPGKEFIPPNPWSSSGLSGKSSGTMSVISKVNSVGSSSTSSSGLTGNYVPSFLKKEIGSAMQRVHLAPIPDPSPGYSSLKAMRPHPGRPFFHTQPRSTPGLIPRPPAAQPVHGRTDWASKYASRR
Description: Selectivity interaction (KinomeScan (DiscoverX)) EUB0001049a ICK. The settings on record: at 1 µM.

The IC50 is the concentration that gives 50% inhibition.

Sequence of Ribosomal protein S6 kinase alpha-4 (Homo sapiens) (O75676 whole entry, looked up): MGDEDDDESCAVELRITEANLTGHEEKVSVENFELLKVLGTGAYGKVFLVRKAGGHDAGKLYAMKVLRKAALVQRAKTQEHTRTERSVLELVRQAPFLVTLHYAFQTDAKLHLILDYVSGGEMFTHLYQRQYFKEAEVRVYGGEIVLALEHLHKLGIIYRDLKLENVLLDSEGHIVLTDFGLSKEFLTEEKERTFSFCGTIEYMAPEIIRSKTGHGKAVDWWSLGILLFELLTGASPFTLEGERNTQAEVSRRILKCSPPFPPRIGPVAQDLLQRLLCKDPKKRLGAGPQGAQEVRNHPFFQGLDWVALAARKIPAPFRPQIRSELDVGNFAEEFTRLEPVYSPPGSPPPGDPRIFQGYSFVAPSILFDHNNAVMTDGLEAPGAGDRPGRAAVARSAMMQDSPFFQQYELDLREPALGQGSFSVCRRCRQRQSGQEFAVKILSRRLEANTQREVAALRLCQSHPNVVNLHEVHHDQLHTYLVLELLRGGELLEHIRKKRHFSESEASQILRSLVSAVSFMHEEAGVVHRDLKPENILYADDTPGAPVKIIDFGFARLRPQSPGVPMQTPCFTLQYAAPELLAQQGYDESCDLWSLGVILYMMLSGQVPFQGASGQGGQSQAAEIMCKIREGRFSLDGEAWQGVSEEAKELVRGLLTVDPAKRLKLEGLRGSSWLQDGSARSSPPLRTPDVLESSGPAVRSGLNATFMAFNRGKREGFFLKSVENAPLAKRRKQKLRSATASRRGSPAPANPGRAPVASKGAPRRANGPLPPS
Sequence of Protein-arginine deiminase type-4 (Q9UM07 whole entry): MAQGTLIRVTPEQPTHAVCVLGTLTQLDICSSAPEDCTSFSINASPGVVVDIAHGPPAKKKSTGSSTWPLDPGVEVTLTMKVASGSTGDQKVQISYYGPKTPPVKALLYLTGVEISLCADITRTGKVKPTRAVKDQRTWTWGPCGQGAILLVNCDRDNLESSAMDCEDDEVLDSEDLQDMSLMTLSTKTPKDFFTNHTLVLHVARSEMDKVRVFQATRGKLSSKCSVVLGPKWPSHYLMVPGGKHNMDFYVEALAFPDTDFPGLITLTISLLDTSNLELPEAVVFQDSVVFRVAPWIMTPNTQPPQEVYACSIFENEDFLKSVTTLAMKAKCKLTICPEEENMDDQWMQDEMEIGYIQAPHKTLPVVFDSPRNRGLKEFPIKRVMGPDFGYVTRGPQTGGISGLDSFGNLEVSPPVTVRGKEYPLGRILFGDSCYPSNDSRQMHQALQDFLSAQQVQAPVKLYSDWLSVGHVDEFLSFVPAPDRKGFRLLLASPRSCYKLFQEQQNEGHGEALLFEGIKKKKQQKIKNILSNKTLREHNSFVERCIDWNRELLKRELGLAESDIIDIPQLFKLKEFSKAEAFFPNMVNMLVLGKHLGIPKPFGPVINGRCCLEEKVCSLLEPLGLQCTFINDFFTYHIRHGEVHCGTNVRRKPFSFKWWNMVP
Sequence of Eukaryotic translation initiation factor 2-alpha kinase 1 (Homo sapiens) (Q9BQI3 whole entry): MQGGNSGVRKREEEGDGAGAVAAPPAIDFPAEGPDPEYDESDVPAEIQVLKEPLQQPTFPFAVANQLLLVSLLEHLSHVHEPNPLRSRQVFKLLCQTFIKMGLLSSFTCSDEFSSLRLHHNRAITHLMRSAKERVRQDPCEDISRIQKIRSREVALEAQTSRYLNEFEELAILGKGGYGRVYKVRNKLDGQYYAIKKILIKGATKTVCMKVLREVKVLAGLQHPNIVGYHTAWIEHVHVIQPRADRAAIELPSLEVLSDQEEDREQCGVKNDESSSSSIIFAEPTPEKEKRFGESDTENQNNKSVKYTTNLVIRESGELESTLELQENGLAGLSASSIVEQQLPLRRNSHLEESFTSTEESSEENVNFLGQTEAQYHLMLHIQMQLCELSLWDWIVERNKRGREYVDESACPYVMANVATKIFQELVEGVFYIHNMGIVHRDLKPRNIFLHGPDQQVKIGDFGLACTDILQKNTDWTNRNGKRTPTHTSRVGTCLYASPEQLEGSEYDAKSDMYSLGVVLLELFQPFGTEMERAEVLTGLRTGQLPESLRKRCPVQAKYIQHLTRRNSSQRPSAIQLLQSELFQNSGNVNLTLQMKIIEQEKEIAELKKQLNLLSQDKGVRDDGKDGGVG
Sequence of Calcium/calmodulin-dependent protein kinase type 1 (Homo sapiens) (Q14012 whole entry, looked up): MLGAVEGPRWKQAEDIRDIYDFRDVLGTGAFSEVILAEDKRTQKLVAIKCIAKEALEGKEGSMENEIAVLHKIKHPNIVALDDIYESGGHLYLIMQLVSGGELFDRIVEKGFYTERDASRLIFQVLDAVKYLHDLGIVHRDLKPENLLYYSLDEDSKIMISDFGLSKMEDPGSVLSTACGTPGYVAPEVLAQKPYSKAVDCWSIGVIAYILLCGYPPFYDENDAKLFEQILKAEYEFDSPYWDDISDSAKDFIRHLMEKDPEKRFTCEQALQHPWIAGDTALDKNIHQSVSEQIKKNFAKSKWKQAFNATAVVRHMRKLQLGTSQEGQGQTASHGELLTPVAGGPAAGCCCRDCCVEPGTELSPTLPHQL

Regarding `CN(C)C/C=C/C(=O)Nc1ccc(C(=O)N2CCCC(Nc3ncc(Cl)c(-c4c[nH]c5ccccc45)n3)C2)cc1` (stereo unspecified), the figures for the % of control in experiment [1] and in experiment [2] were 100% and 84%, respectively.

Regarding `CCn1c(-c2nc3cc(C(=O)N4CCCC(N)C4)ccc3n2C)cc2ccccc21` (stereo unspecified), the IC50 in experiment [3] is 250 nM.

Compound `N#Cc1cccc(-c2c[nH]c3ncnc(N4CCOCC4)c23)c1` showed a % of control in experiment [4] of 100%.

Regarding `CC[C@@H]1[C@H](F)C(=O)N[C@@H]1COc1nccc2cc(C(N)=O)c(OC)cc12` [ZIMLOVISERTIB], the % of inhibition in experiment [5] (at 0.01 µM) was -4.6%; in experiment [5] (at 0.04 µM), -2.6%; in experiment [5] (at 0.2 µM), -18.1%; in experiment [5] (at 1 µM), -20.7%; in experiment [5] (at 5 µM), -27.3%; in experiment [6] it was -6.2%.

`COc1cc(Nc2nc(C)cc(-c3cnn4nc(OC)ccc34)n2)cc(C(F)(F)F)c1`: the % of control in experiment [7] is 85%.
